Columns and labels:
[1] = molecular target: T1, PPARG/RXRA LBD heterodimer (Homo sapiens, UniProt P37231); assay: PPARγ-NCOR1 recruitment assay (TR-FRET); type: binding; conditions: NCOR1 ID2 peptide, 80 nM Rosiglitazone, 3 hours, read-out: PPARG - NCOR recruitment assay EC50
T1 construct: 2 nM WT PPARG LBD (e. coli expressed, His-TEV-Q203-Y477); fused on or other part: N-terminal His tag with TEV site on the PPARG LBD
Method: Compound potency (EC50) and maximal extent of NCOR1 recruitment to PPARG were assessed a TR-FRET binding assay measuring association of a biotinylated NCOR1 ID2 peptide (Biotin-[…]-amide) to PPARG/RXRA LBD heterodimer. Specifically, a 20 microliters of TR-FRET master mix consisting of 2 nM WT PPARG LBD (e. coli expressed, His-TEV-Q203-Y477; Uniprot ID P37231-2), 2 nM WT RXRA LBD or mutant S427F RXRA LBD (e. coli expressed, Flag-TEV-E228-T462; […]. Mixtures were incubated for 3 hours and read in an EnVision plate reader (Perkin Elmer) with Ex/Em 615/665. To determine the potency (EC50) and extent of NCOR1 recruitment, TR-FRET ratios were normalized to the average ratio of DMSO control wells (0%) and to the average maximum ratio for positive control compound (T0070907 (2-chloro-5-nitro-N-4-pyridinyl-benzamide); defined as 100%) in CDD Vault and analyzed using the Levenberg-Marquardt algorithm.
T1 sequence (O75376 2251-2273 limits assumed, one chain of several, further chain): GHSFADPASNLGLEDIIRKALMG

[2] = molecular target: T2, PPARG/RXRA LBD heterodimer (Homo sapiens, UniProt P37231); assay: PPARγ-MED1 blockade assay (TR-FRET); type: binding; conditions: MED1 LxxLL peptide, 80 nM Rosiglitazone, 3 hours
T2 construct: His-TEV-Q203-Y477; Uniprot ID P37231-2; made in house; host or cells: E. coli
T2 sequence (P37231 203-477 isoform P37231-2): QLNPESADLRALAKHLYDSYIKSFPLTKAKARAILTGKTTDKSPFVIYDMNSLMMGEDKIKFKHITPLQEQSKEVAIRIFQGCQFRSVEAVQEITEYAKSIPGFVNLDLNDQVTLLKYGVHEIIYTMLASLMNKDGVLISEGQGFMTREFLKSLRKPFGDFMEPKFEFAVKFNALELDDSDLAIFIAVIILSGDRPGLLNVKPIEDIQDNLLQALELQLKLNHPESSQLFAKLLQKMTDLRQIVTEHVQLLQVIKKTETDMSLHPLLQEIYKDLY
T2 sequence (P19793 228-462 partner limits assumed): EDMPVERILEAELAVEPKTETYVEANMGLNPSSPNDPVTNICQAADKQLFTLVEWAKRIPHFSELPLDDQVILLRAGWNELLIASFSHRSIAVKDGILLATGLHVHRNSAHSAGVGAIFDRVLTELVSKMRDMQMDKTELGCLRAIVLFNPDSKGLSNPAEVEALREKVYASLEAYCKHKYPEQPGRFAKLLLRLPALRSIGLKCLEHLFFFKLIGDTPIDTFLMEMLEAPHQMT
Method: Compound potency (IC50) and maximal extent of MED1 repulsion to PPARG were assessed a TR-FRET binding assay measuring association of a biotinylated MED1 LxxLL peptide (Biotin—[…]-amide) to PPARG/RXRA LBD heterodimer. Specifically, a 20 microliters of TR-FRET master mix consisting of 2 nM WT PPARG LBD (e. coli expressed, His-TEV-Q203-Y477; Uniprot ID P37231-2), 2 nM WT RXRA LBD (e. coli expressed, Flag-TEV-E228-T462; […]. Mixtures were incubated for 3 hours and read in an EnVision plate reader (Perkin Elmer) with Ex/Em 615/665. To determine the potency (IC50) and extent of MED1 repulsion, TR-FRET ratios were normalized to the average ratio of DMSO control wells (0%) and to the average minimum ratio for positive control compound (GW9662 (2-chloro-5-nitrobenzanilide); defined as 100%) in CDD Vault and analyzed using the Levenberg-Marquardt algorithm.

[3] = test system: ANGPTL4, a PPARG target gene, in HT1197 (RXRA S427F mutation) cells; assay: Bladder cancer pharmacodynamic assay (HT1197 cell assay, qPCR of PPARG target genes); type: cell-based; conditions: Homo sapiens; for inhibition at 0.1 µM: 100 nM compound, 24 hours, relative to DMSO control
Method: 5637 (PPARG amplified) and HT1197 (RXRA S427F mutation) cells were used for assessment of modulation of PPARG target genes using quantitative PCR. Cells were treated for 24 hours with PPARG inverse agonists prior to analysis of FABP4 (IDT, Cat: Hs.PT 58.20106818) and ANGPTL4 (IDT, Cat: Hs.PT 58.25480012) expression, with expression of the housekeeping gene TBP (IDT, Cat: Hs.PT 58v.39858774) used to normalize expression across samples. Quantitative PCR was performed using an ABI QuantStudio 7 Flex Reaction system. Data were analyzed and reported relative to DMSO control using the comparative Ct method (ΔΔCt).

| Structure (SMILES) | EC50 [1] [nM] | EC50 [2] [nM] | EC50 ([3]; 24 hours treatment, qPCR) [nM] | inhibition at 0.1 µM [3] [%] |
| --- | --- | --- | --- | --- |
| CS(=O)(=O)c1ccc(C#N)cc1C(=O)Nc1ccc(C(F)(F)F)c(C#N)c1 [Example 10, 5-cyano-N-(3-cyano-4-(trifluorometh-yl)phenyl)-2-(methylsulfonyl) benzamide] | 100 to 1000 | 100 to 1000 | – | 48 |
| CN1CCN(c2ccc(NC(=O)c3cc(C#N)ccc3S(C)(=O)=O)cn2)CC1 [Example 12, 5-cyano-N-(6-(4-methylpiperazin-1-yl)pyridin-3-yl)-2-(methylsulfonyl) benzamide] | > 10000 | > 10000 | – | 25 |
| N#Cc1ccc(SC(F)(F)F)c(C(=O)Nc2cc(F)c(-c3ccc(C(F)F)nc3)c(F)c2)c1 [Example 2, 5-cyano-N-(4-(6-(difluoromethyl)pyridin-3-yl)-3,5-difluorophenyl)-2-((trifluorometh-yl)thio)benzamide] | 100 to 1000 | 100 to 1000 | – | 83 |
| CS(=O)(=O)c1ccc(C#N)cc1C(=O)Nc1ccc(C#N)c(Cl)c1 [Example 1, N-(3-chloro-4-cyanophenyl)-5-cyano-2-(methylsulfonyl)benzamide] | 100 to 1000 | 100 to 1000 | 5.2 | 86 |
| N#Cc1ccc(SC(F)(F)F)c(C(=O)Nc2cc(F)cc(F)c2)c1 [Example 6, 5-cyano-N-(3,5-difluorophenyl)-2-(trifluorometh-ylsulfanyl)ben-zamide] | 100 to 1000 | 100 to 1000 | – | 54 |
| CS(=O)(=O)c1ccc(C#N)cc1C(=O)Nc1ccnc(C(F)(F)F)c1 [Example 9, 5-cyano-2-(methylsulfonyl)-N-(2-(trifluorometh-yl)pyridin-4-yl)benzamide] | 1000 to 10000 | 1000 to 10000 | – | 64 |
| CS(=O)(=O)c1ccc(C#N)cc1C(=O)Nc1cc(F)cc(F)c1 [Example 5, 5-cyano-N-(3,5-difluorophenyl)-2-(methylsulfonyl) benzamide] | 100 to 1000 | 1000 to 10000 | – | 40 |
| CS(=O)(=O)c1ccc(C#N)cc1C(=O)Nc1cc(Cl)cc(Cl)c1 [Example 8, 5-cyano-N-(3,5-dichlorophenyl)-2-(methylsulfonyl) benzamide] | 100 to 1000 | 100 to 1000 | – | 41 |
| N#Cc1ccc(SC(F)(F)F)c(C(=O)Nc2cc(Cl)cc(Cl)c2)c1 [Example 15, 5-cyano-N-(3,5-dichlorophenyl)-2-((trifluorometh-yl)thio)benzamide] | 10 to 100 | 10 to 100 | – | 46 |
| CS(=O)(=O)c1ccc(C#N)cc1C(=O)Nc1ccc(C#N)c(C(F)(F)F)c1 [Example 7, 5-cyano-N-(4-cyano-3-(trifluorometh-yl)phenyl)-2-(methylsulfonyl) benzamide] | 1000 to 10000 | 1000 to 10000 | – | 77 |

Further lines, with some results ahead:

| EC50 [1] [nM] | EC50 [2] [nM] | EC50 ([3]; 24 hours treatment, qPCR) [nM] | Structure (SMILES) | inhibition at 0.1 µM [3] [%] |
| --- | --- | --- | --- | --- |
| 10 to 100 | 10 to 100 | – | CS(=O)(=O)c1ccc(C#N)cc1C(=O)Nc1cc(F)cc(Oc2ccc(Cl)cc2)c1 [Example 16, N-(3-(4-chlorophenoxy)-5-fluorophenyl)-5-cyano-2-(methylsulfonyl) benzamide] | – |
| 100 to 1000 | 100 to 1000 | – | CS(=O)(=O)c1cnc(C#N)cc1C(=O)Nc1ccnc(C(F)(F)F)c1 [Example 32, 2-cyano-5-(methylsulfonyl)-N-(2-(trifluoromethyl)py-ridin-4-yl)isonicotinamide] | 80 |
| 100 to 1000 | 100 to 1000 | – | CN1Cc2ccc(-c3c(F)cc(NC(=O)c4cc(C#N)ccc4SC(F)(F)F)cc3F)cc2C1=O [Example 27, 5-cyano-N-(3,5-difluoro-4-(2-methyl-3-oxoisoindolin-5-yl)phenyl)-2-((trifluorometh-yl)thio)benzamide] | 79 |
| > 10000 | > 10000 | – | CC(=O)N1CCN(c2ccc(NC(=O)c3cc(C#N)ccc3S(C)(=O)=O)cn2)CC1 [Example 18, N-(6-(4-acetylpiperazin-1-yl)pyridin-3-yl)-5-cyano-2-(methylsulfonyl) benzamide] | 13 |
| 1000 to 10000 | 1000 to 10000 | – | N#Cc1ccc(S(=O)(=O)CC(F)(F)F)c(C(=O)Nc2cc(F)cc(F)c2)c1 [Example 33, 5-cyano-N-(3,5-difluorophenyl)-2-((2,2,2-trifluoroethyl)sulfonyl)benzamide] | 19 |
| > 10000 | > 10000 | – | CS(=O)(=O)c1ccc(C#N)cc1C(=O)Nc1ccc2ccncc2c1 [Example 22, 5-cyano-N-(isoquinolin-7-yl)-2-(methylsulfonyl) benzamide] | 0 |
| 10 to 100 | 10 to 100 | – | CS(=O)(=O)c1ccc(C#N)cc1C(=O)Nc1cc(F)c(-c2ccc3c(c2)C(=O)NC3)c(F)c1 [Example 23, 5-cyano-N-(3,5-difluoro-4-(3-oxoisoindolin-5-yl)phenyl)-2-(methylsulfonyl) benzamide] | 19 |
| > 10000 | > 10000 | – | CS(=O)(=O)c1ccc(C#N)cc1C(=O)Nc1ccn2nccc2c1 [Example 20, 5-cyano-2-(methylsulfonyl)-N-(pyrazolo[1,5-a]pyridin-5-yl)benzamide] | 0 |
| 1000 to 10000 | 1000 to 10000 | – | CS(=O)(=O)c1ccc(C#N)cc1C(=O)Nc1ccc(F)c(C#N)c1 [Example 17, 5-cyano-N-(3-cyano-4-fluorophenyl)-2-(methylsulfonyl) benzamide] | 43 |
| > 10000 | > 10000 | – | Cc1cc(NC(=O)c2cc(C#N)ccc2S(C)(=O)=O)cc(C)n1 [Example 19, 5-cyano-N-(2,6-dimethylpyridin-4-yl)-2-(methylsulfonyl) benzamide] | 20 |
| 100 to 1000 | 100 to 1000 | – | N#Cc1cc(C(=O)Nc2cc(F)cc(F)c2)c(S(=O)(=O)CC(F)(F)F)cn1 [Example 34, 2-cyano-N-(3,5-difluorophenyl)-5-((2,2,2-trifluoroethyl)sulfonyl) isonicotinamide] | 59 |
| 100 to 1000 | 100 to 1000 | – | Cn1cc(-c2c(F)cc(NC(=O)c3cc(C#N)ccc3SC(F)(F)F)cc2F)cn1 [Example 29, 5-cyano-N-(3,5-difluoro-4-(1-methyl-1H-pyrazol-4-yl)phenyl)-2-((trifluorometh-yl)thio)benzamide] | 65 |
| 1000 to 10000 | 1000 to 10000 | – | Cc1cc(NC(=O)c2cc(C#N)ccc2S(C)(=O)=O)cnc1C(F)(F)F [Example 30, 5-cyano-N-(5-methyl-6-(trifluorometh-yl)pyridin-3-yl)-2-(methylsulfonyl) benzamide] | 42 |
| 1000 to 10000 | 1000 to 10000 | – | N#Cc1ccc(SC(F)(F)F)c(C(=O)Nc2ccnc(C(F)(F)F)c2)c1 [Example 24, 5-cyano-N-(2-(trifluorometh-yl)pyridin-4-yl)-2-((trifluorometh-yl)thio)benzamide] | 49 |

From patent US20250197357A1, “PPARG INVERSE AGONISTS AND USES THEREOF” (Flare Therapeutics Inc., priority 2022, published 2025)
